One assay deals with H1 (Homo sapiens, UniProt P35367). The experiment in a line: Histamine H1 receptor binding (NIMH PDSP). As to conditions: for inhibition at 10 µM: read-out: Inhibition (% at 10 μM). As to the method: The compounds from the above Examples were tested for activity vs. histamine receptor subtypes (i.e., H1, H2, H3), at an initial concentration of 10 μM. Binding activity measurement was performed by the NIMH Psychoactive Drug Screening Program (PDSP) at the University of North Carolina Chapel Hill, N.C. […] Data (e.g., H3antagonist activity) may also be generated using a commercially available kit from Invitrogen/Thermo Fisher Scientific Inc. (Tango™ H3-bla U2OS DA Assay Kit).

Another assay deals with SERT (Homo sapiens, UniProt P31645). The experiment in a line: Serotonin reuptake activity (SERT), PDSP. In kind it is binding. As to conditions: for inhibition at 10 µM: 10 μM drug concentration; for Ki: calculated Ki.
Another assay deals with H3 (UniProt Q9Y5N1). The experiment in a line: Histamine H3 receptor binding (NIMH PDSP). As to conditions: H3 receptor subtype. As to the method: The compounds from the above Examples were tested for activity vs. histamine receptor subtypes (i.e., H1, H2, H3), at an initial concentration of 10 μM. Binding activity measurement was performed by the NIMH Psychoactive Drug Screening Program (PDSP) at the University of North Carolina Chapel Hill, N.C. The procedures employed by the PDSP are described in the NIMH PDSP Assay Protocol Book Version II (see, http://pdsp.med.unc.edu/PDSP %20Protocols %2011%202013-03-28.pdf). Data (e.g., H3antagonist activity) may also be generated using a commercially available kit from Invitrogen/Thermo Fisher Scientific Inc. (Tango™ H3-bla U2OS DA Assay Kit). Data for serotonin reuptake activity (SERT, % inhibition at 10 μM drug concentration; calculated Ki) were also generated by PDSP.

Each structure is given as a SMILES string. Like-named read-outs stand apart in the source and are kept apart here.

Chain of H1 (P35367 whole entry): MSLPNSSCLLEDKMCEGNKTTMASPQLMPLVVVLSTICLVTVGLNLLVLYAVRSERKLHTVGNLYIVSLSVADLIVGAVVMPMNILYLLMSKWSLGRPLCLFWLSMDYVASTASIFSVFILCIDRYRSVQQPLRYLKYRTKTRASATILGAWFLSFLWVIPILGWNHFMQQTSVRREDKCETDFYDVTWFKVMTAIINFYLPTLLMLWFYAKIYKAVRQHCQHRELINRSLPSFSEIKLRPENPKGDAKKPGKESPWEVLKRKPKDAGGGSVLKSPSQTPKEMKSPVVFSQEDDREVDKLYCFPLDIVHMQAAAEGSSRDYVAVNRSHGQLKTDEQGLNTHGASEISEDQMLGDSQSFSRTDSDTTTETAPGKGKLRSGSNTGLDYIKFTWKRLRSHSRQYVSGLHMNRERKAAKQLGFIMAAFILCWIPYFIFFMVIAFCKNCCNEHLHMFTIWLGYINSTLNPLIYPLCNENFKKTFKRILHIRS
Chain of SERT (P31645 whole entry, species assumed): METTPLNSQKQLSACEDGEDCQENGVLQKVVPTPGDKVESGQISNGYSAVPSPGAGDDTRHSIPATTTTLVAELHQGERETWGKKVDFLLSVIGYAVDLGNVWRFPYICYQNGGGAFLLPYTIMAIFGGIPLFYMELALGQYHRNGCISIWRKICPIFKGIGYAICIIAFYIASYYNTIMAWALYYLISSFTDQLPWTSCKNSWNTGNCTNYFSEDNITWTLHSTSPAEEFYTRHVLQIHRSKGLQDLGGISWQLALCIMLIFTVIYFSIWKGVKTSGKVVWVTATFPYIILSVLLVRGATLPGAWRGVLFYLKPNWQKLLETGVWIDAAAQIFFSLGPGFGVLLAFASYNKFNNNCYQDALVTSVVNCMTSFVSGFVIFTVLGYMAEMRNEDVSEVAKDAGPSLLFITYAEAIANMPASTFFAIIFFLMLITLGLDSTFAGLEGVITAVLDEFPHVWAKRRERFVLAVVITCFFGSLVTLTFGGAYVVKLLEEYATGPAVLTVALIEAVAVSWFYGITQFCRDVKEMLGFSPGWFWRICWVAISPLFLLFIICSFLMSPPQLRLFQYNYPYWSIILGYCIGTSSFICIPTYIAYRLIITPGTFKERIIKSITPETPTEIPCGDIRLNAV

In the case of `CN(C)CCCC1(c2ccc(F)cc2)OCc2cc(CN3CCCCC3)ccc21` (stereo not drawn) [Example 1], at H1, the Ki is 101 nM and the inhibition at 10 µM is 89.9%. On SERT, the inhibition at 10 µM was determined as 98.8% and the Ki is 29 nM. Moreover, on H3, the Ki stood at 20 nM and the “Inhibition (% at 10 μM)” value worked out at 99.6%.
With `CN(C)CCCC1(c2ccc(F)cc2)OCc2cc(CN3CCN(C)CC3)ccc21` (stereo not drawn) [Example 2, 3-[5-((4-methylpiperazin-1-yl)methyl)-1-(4-fluorophenyl)-1,3-dihydro-2-benzofuran-1-yl]-N,N-dimethylpropan-1-amine], the inhibition at 10 µM at H1 (H1 receptor subtype, 10 μM) was 89.8%; at SERT, 99.3%. Moreover, the Ki is 144 nM on H1 (H1 receptor subtype, read-out: Ki); 31 nM at SERT; 155 nM at H3. In addition, on H3, the “Inhibition (% at 10 μM)” value is reported as 89.8%.

The record behind these values is patent US20160237052A1, “Histamine-3 Receptor Antagonists” (MediSynergics, LLC, priority 2015, published 2016).
